Series [1] relates to PC-12. Briefly: Neuroprotective activity against H2O2-induced damage in rat PC12 cells assessed as reduction in LDH release at 100 uM pretreated for 2 hrs followed by H2O2 challenge measured after 24 hrs. In kind it is functional, cell-based. For orientation: LDH in the medium is a marker of cell lysis.
The subject of series [2] is PC-12. In words: Neuroprotective activity against H2O2-induced damage in rat PC12 cells assessed as increase in cell viability at 100 uM pretreated for 2 hrs followed by H2O2 challenge measured after 24 hrs by MTT assay. In kind it is functional, cell-based.
Series [3] in a line: Metal chelating activity assessed as compound-Cu2+ complex formation at 37.5 uM in presence of CuCl2 after 30 mins by UV-visible spectrophotometric analysis. It is filed as functional.
Series [4] has as its target butyrylcholinesterase (BuChE) (Rattus norvegicus, UniProt Q9JKC1). Briefly: Inhibition of BuChE in rat serum at 50 uM using butyrylthiocholine as substrate measured after 15 mins by Ellman's method relative to control. Particulars: probe butyrylthiocholine. On the technique in general: In Ellman's method for cholinesterases, released thiocholine reacts with DTNB.
The target in series [5] is T1, Amine oxidase [flavin-containing] B (Homo sapiens, UniProt P27338).
T1 sequence (P27338 whole entry): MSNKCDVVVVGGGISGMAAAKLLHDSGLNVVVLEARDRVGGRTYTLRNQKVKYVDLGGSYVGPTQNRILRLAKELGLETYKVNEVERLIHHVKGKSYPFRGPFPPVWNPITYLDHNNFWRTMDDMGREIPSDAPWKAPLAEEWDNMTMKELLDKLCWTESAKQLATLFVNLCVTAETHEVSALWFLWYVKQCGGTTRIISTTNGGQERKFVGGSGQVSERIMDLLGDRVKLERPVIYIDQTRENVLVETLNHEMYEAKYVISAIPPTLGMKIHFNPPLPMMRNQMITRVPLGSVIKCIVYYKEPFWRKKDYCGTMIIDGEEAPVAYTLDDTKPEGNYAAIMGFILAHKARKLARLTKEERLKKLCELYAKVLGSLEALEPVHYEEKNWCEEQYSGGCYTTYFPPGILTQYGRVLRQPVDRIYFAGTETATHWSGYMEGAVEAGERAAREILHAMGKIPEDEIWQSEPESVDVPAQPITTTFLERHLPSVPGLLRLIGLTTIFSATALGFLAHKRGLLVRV
In words: Inhibition of recombinant human MAO-B expressed in baculovirus infected BTI insect cells at 10 uM using kynuramine as substrate incubated for 30 mins by fluorescence assay relative to control. As to conditions: 0.5 h.

A short description of series [6]: Inhibition of Cu2+-mediated aggregation of human amyloid beta (1 to 42 residues) at 25 uM after 24 hrs by thioflavin T-based fluorometric assay relative to control. It is filed as functional.
Series [7] can be described thus: Permeability of compound at 100 ug/ml after 18 hrs by PAMPA. It is filed as physicochemical. As to conditions: read-out: permeability. Background: PAMPA measures passive passage across an artificial lipid membrane.
Series [8] deals with T2, Acetylcholinesterase (Electrophorus electricus, UniProt O42275). In words: Inhibition of Electrophorus electricus AChE using acetylthiocholine iodide as substrate measured after 15 mins by Ellman's method.
T2 sequence (O42275 whole entry): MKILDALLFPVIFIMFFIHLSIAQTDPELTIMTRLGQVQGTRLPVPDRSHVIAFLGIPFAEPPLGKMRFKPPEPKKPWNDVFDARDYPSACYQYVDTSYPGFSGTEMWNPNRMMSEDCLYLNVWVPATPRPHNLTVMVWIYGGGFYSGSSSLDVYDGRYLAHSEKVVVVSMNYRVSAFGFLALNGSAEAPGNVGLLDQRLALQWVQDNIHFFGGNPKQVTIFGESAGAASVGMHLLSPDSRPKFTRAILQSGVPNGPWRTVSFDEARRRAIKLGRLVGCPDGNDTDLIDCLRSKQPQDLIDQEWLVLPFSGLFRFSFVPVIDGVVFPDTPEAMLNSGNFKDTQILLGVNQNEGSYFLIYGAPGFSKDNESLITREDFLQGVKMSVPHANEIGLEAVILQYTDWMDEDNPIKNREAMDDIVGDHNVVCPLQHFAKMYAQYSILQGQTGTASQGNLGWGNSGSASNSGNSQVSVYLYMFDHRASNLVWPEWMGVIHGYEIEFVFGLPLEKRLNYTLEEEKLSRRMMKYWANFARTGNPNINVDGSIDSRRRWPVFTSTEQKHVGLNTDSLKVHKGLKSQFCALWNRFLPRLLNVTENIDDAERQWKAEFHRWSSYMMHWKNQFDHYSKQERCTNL
The nature of series [9]: Antioxidant activity assessed as inhibition of AAPH-induced peroxyl radical generation at 5 uM measured as trolox equivalent preincubated for 15 mins followed by AAPH addition measured every 60 secs for 90 mins by ORAC-FL assay. In kind it is functional.
Series [10] has as its target T3, Acetylcholinesterase (Rattus norvegicus, UniProt P37136).
T3 sequence (P37136 whole entry): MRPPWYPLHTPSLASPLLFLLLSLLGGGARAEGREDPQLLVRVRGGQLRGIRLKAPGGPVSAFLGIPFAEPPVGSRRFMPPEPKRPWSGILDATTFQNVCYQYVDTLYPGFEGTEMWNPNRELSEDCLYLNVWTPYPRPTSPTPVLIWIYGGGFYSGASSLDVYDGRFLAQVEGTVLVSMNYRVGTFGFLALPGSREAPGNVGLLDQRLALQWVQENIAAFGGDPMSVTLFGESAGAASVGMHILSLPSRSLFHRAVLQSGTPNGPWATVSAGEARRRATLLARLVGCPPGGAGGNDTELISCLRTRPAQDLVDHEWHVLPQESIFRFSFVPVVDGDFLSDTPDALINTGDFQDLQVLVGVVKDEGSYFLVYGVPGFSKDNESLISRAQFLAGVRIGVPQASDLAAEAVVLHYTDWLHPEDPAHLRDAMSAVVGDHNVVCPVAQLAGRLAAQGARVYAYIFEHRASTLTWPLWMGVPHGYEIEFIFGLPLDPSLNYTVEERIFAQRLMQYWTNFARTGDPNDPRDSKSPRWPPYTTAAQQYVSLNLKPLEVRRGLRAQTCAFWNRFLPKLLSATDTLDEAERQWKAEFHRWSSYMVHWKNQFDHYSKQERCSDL
Briefly: Inhibition of AChE in rat brain cortex homogenates using acetylthiocholine iodide as substrate in presence of BuChE inhibitor tetraisopropyl pyrophosphoramide measured after 15 mins by Ellman's method.

The nature of series [11]: Metal chelating activity assessed as mole fraction of compound required to show 1:1 stoichiometry for Cu2+-compound complex at 37.5 uM after 30 mins by UV-vis spectrophotometric method. It is filed as functional.
The nature of series [12]: Metal chelating activity assessed as compound-Zn2+ complex formation at 37.5 uM in presence of ZnCl2 after 30 mins by UV-visible spectrophotometric analysis. In kind it is functional.
In series [13] the target is Amyloid-beta precursor protein (Homo sapiens) (UniProt P05067). Briefly: Inhibition of self-induced aggregation of HFIP-treated human amyloid beta (1 to 42 residues) at 25 uM after 24 hrs by thioflavin T-based fluorometric assay relative to control.
Sequence of Amyloid-beta precursor protein (Homo sapiens) (P05067 whole entry, the tested form may be a part): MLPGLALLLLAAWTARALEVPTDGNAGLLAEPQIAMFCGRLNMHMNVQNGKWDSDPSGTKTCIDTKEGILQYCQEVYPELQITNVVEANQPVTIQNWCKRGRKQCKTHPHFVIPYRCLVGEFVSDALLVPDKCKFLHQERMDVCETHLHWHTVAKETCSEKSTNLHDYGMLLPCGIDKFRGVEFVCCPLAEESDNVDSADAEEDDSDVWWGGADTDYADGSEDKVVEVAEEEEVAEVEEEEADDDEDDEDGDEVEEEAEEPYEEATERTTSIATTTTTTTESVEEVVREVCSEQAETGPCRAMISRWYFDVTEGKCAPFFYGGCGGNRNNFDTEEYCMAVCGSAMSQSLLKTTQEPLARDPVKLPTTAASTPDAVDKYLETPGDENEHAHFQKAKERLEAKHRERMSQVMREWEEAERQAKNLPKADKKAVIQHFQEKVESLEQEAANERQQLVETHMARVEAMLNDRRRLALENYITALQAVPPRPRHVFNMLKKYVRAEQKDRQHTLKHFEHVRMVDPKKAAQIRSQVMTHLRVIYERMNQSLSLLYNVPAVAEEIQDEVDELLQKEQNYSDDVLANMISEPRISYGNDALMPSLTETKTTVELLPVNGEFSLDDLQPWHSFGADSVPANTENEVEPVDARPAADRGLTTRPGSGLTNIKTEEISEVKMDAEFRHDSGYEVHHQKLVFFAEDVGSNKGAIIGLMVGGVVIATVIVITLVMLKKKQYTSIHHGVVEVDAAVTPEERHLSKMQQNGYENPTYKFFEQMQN
For series [14], the target named is Acetylcholinesterase (Homo sapiens, UniProt P22303). Briefly: Inhibition of human erythrocyte AChE using acetylthiocholine iodide as substrate measured after 15 mins by Ellman's method.
Sequence of Acetylcholinesterase (Homo sapiens, UniProt P22303) (P22303 whole entry): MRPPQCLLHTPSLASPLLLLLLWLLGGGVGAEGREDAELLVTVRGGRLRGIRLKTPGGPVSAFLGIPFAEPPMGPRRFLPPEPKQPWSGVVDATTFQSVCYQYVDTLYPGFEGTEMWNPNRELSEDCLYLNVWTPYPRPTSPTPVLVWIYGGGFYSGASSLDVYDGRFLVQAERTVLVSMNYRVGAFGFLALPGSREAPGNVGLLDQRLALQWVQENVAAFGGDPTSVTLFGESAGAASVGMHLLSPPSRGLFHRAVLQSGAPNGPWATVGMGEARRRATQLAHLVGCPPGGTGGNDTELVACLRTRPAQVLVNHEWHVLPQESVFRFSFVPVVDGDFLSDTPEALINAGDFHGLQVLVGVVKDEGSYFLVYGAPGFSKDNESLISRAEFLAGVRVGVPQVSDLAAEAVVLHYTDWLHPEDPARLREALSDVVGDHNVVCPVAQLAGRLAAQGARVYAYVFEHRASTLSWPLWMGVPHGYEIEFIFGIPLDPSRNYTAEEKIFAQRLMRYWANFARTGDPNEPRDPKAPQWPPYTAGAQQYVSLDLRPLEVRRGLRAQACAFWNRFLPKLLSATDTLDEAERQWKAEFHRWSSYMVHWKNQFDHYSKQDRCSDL
In series [15] the target is T4, Amine oxidase [flavin-containing] A (Homo sapiens, UniProt P21397).
T4 sequence (P21397 whole entry): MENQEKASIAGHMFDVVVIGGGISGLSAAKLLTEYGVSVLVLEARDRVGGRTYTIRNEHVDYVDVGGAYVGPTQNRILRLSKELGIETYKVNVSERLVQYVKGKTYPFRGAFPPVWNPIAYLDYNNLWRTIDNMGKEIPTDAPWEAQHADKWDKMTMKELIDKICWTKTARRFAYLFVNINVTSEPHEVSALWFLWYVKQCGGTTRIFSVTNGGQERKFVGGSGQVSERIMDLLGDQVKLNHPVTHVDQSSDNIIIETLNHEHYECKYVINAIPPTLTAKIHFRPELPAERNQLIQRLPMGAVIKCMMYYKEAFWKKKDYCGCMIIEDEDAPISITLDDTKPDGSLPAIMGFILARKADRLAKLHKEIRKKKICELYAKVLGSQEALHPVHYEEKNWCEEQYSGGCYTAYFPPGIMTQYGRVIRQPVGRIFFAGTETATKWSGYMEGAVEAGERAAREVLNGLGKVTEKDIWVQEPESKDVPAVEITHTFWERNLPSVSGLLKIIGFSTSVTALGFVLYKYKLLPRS
In words: Inhibition of recombinant human MAO-A expressed in baculovirus infected BTI insect cells at 10 uM using kynuramine as substrate incubated for 30 mins by fluorescence assay relative to control. As to conditions: 0.5 h.

A short description of series [16]: Metal chelating activity assessed as compound-Al3+ complex formation at 37.5 uM in presence of AlCl3 after 30 mins by UV-visible spectrophotometric analysis. It is filed as functional.
Series [17] in a line: Metal chelating activity assessed as compound-Fe2+ complex formation at 37.5 uM in presence of FeSO4 after 30 mins by UV-visible spectrophotometric analysis. It is filed as functional.
Series [18] relates to PC-12. Briefly: Neuroprotective activity against H2O2-induced damage in rat PC12 cells assessed as increase in cell viability at 1 to 50 uM pretreated for 2 hrs followed by H2O2 challenge measured after 24 hrs by MTT assay. In kind it is functional, cell-based.
The test system of series [19] is PC-12. Briefly: Cytotoxicity against rat PC12 cells at <50 uM measured after 48 hrs by MTT assay. In kind it is cell-based. Particulars: pc-12, 48 h.
Series [20] can be described thus: Metal chelating activity assessed as mole fraction of compound required to show 2:1 stoichiometry for Cu2+-compound complex at 37.5 uM after 30 mins by UV-vis spectrophotometric method. In kind it is functional.
In series [21] the target is T2, Acetylcholinesterase. In words: Mixed-type inhibition of Electrophorus electricus AChE pretreated for 15 mins followed by varying levels of acetylthiocholine iodide substrate addition by Lineweaver-Burk plot analysis.
Series [22] relates to PC-12. Briefly: Neuroprotective activity against H2O2-induced damage in rat PC12 cells assessed as reduction in LDH release at 0.1 to 50 uM pretreated for 2 hrs followed by H2O2 challenge measured after 24 hrs. It is filed as functional, cell-based.

The text below walks through data of ChEMBL document CHEMBL4002586, “Aurone Mannich base derivatives as promising multifunctional agents with acetylcholinesterase inhibition, anti-β-amyloid aggragation and neuroprotective properties for the treatment of Alzheimer's disease” (Eur J Med Chem, 2017).

The source made the active and inactive calls. The calls are words filed in the database; no cut-off is given here.

Sequence of butyrylcholinesterase (BuChE) (Q9JKC1 whole entry): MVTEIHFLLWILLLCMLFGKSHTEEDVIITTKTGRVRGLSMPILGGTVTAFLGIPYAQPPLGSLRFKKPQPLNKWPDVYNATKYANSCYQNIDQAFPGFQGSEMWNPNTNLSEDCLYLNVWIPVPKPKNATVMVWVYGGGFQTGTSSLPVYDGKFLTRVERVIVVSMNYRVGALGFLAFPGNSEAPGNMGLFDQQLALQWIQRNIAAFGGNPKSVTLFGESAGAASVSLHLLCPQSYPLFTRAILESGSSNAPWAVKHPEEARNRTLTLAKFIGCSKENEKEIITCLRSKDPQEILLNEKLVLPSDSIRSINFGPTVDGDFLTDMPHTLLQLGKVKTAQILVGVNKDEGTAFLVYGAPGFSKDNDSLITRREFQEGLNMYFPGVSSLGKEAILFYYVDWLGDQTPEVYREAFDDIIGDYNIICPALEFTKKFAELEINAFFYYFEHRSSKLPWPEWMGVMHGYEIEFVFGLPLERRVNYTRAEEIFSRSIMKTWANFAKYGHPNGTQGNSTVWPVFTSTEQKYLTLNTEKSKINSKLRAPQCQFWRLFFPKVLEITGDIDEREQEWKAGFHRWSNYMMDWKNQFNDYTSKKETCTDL

In the case of `Cc1c(C)c2c(c(C)c1O)CCC(C)(C(=O)O)O2` (stereo unspecified), the outcome in the series with PC-12 [1] and in the series on PC-12 [2] was Active.
For `CCN(Cc1ccc(/C=C2\Oc3cc(OC)c(OC)cc3C2=O)cc1O)Cc1ccccc1N(C)C`, the result in [3], in [12], in series [16] and in series [17] was Active. Besides, the inhibition (usually the share of the control response that was lost under treatment) at 0.25 h, 50 µM in series [4] was determined as 19.6%. Also, the values for the inhibition at 10 µM in series [5] and in series [15] were 38.1% and 15.3%, respectively. The inhibition came out at 72.6% in series [6] and 78.3% in [13]. Also, the Papp at 18 h, 100 ug/ml in series [7] worked out at 12.2 ×10⁻⁶ cm/s. The IC50 – broadly, the concentration that gives 50% inhibition – against Acetylcholinesterase [8] amounted to 6400 nM; at Acetylcholinesterase [10] it was 7320 nM; against Acetylcholinesterase [14], 6690 nM. Moreover, the Activity in series [9] turned out to be 1.56 equiv; in [11] it was 0.98 molar ratio.
Turning to `COc1cc2c(cc1OC)C(=O)/C(=C/c1ccc(CN3CCCCC3)c(O)c1)O2`, the result (in the series on PC-12 [18]; in series [3]; in the series with PC-12 [22]; in [16]; in series [17]) was Active. Further, the Activity entry in the series on PC-12 [19] was “Non-Toxic”; in series [20], 0.5 molar ratio; in [9], 1.66 equiv. This compound also registered an inhibition at 0.25 h, 50 µM in [4] of 12.9%. Besides, the inhibition at 10 µM in [5] came out at 32%; in series [15], 15.3%. Moreover, the inhibition in series [6] turned out to be 45.1%; in series [13], 58.1%. Besides, the Papp at 18 h, 100 ug/ml in series [7] stood at 13.5 ×10⁻⁶ cm/s. Also, at Acetylcholinesterase [21], the Ki (usually the dissociation constant of the complex between target and ligand, obtained from inhibition or displacement) is 12 nM. In addition, the IC50 came out at 21.2 nM against Acetylcholinesterase [8], 8.78 nM at Acetylcholinesterase [10] and 37.1 nM at Acetylcholinesterase [14]. Further, the outcome in series [12] was inactive.
